# How the values were obtained:
# [1] = test system: A. brasiliensis; assay: Minimum inhibitory concentration (MIC) in Mueller-Hinton broth, pH 7.4; format: cell-based, Aspergillus brasiliensis; set-up: Minimum inhibitory concentration: unit not given here; conditions: for Minimum inhibitory concentration: Table 2
# Method: (§1) This example illustrates the preparation of testing parameters for antimicrobial activity of components of the inventive composition and related compositions for comparison. […] Microbes were grown on Mueller-Hinton agar (MHA, Sigma-Aldrich, St. Louis, Mo.) for 7 days until heavy sporulation was present. Spores from two agar plates were captured in sterile phosphate-buffered saline (PBS) using a sterile swab. Spores were enumerated by serial dilution in Dey-Engley neutralizing broth (DEB; Sigma-Aldrich) and spread plating on MHA. A typical spore stock was determined to contain ˜2×10^7 spores/mL. Bacteria were grown in MH broth for 24 h at 37° C., enumerated by plating, and diluted to the desired concentration as indicated.
# (§2) To assess the antimicrobial activity of hydroxamic acids and derivatives, the inhibitory properties of commercially available hydroxylamines and hydroxamic acids were compared to their alcohol and carboxylic acid analogues diluted in Mueller-Hinton broth at pH 7.4 (Table 1).
# [2] = test system: Aspergillus brasiliensis ATCC 16404; assay: Fungicidal activity in ionic surfactant hand wash / foamy hand soap base formula (HW); format: cell-based; conditions: pH 7.0; for CFU/mL, incubation time 3 d / CFU/mL, incubation time 7 d / CFU/mL, incubation time 13 d / CFU/mL, incubation time 18 d / CFU/mL, incubation time 20 d: 0.4% hydroxamic acid alone, minimum detection limit 5.0 × 10^1; for Log Reduction Day 12 / Log Reduction Day 5: substance alone 0.5%, high loading 10^7 CFU/mL; for Log reduction Week 1 / Log reduction Week 2: 1 × 10^6 CFU/mL, 25° C.
# Method: as §1
# All test formulas were adjusted to the desired pH using citric acid and/or NaOH. […] All tubes were kept at room temperature (˜21-22° C.) for 3 weeks. About 100 μL of each inoculated foamy hand soap mixture was diluted 1:10 in DEB and 100 μL of this dilution was spread plated on MHA at several time points (e.g. 3 d, 7 d, 13 d, 18 d, and 20 d). Plates were incubated at room temperature for 3-5 days for mold (1-2 days for bacteria) and colonies enumerated.
# The preservative activity of a hydroxamic acid/guanylhydrazone combination was compared to other antimicrobial mixtures in an ionic surfactant-containing formula. […] The fungicidal properties of a mixture of benzhydroxamic acid and guanylhydrazone (1+7) was compared to commercial antimicrobials representing different functional classes (Table 3).
# [3] = test system: S. aureus; assay: Minimum inhibitory concentration (MIC) in Mueller-Hinton broth, pH 7.4; format: cell-based, Staphylococcus aureus
# Method: as §1, §2
# [4] = test system: P. aeruginosa; assay: as above; format: cell-based, Pseudomonas aeruginosa; set-up: Minimum inhibitory concentration: unit not given here; conditions: for Minimum inhibitory concentration: Table 2, ATCC 9027
# Method: as §1, §2
# Guanylhydrazones 7 and 8, which represent a class of broad-spectrum antimicrobials, alone and in combination with hydroxamic acids were evaluated.
# [5] = test system: E. coli; assay: as above; format: cell-based, Escherichia coli
# Method: as §1, §2
# [6] = test system: C. albicans; assay: as above; format: cell-based, Candida albicans
# Method: as §1, §2
# [7] = test system: Pseudomonas aeruginosa ATCC 9027; assay: Bactericidal activity in ionic surfactant hand wash / foamy hand soap base formula (HW); format: cell-based; conditions: pH 7.0; for Day 3 Log Reduction / Day 10 Log Reduction: HW, 1 × 10^6 CFU/ml, 37° C.
# Method: This example illustrates the preparation of testing parameters for antimicrobial activity of components of the inventive composition and related compositions for comparison. […] Mold were grown and minimum inhibitory tests performed as previously reported (see e.g., Buckley, H. L. et al. ACS Sustain. Chem. Eng. 5, 4320-4331, 2017). Microbes were grown on Mueller-Hinton agar (MHA, Sigma-Aldrich, St. Louis, Mo.) for 7 days until heavy sporulation was present. Spores from two agar plates were captured in sterile phosphate-buffered saline (PBS) using a sterile swab. Spores were enumerated by serial dilution in Dey-Engley neutralizing broth (DEB; Sigma-Aldrich) and spread plating on MHA. A typical spore stock was determined to contain ˜2×10^7 spores/mL. Bacteria were grown in MH broth for 24 h at 37° C., enumerated by plating, and diluted to the desired concentration as indicated.
# To test the various compounds, a foamy hand soap base formula was made with sodium lauryl sulfate (SLS, 2.4% w/w; Sulfochem SLS-PHP [30% active], The Lubrizol Corporation, Wickliffe, Ohio) and cocoamidopropyl betaine (CAPB, 1.2% w/w; Mackam 35 [30% active], Solvay S.A, Brussels, Belgium) in deionized water and sterilized by filtration (0.22 μm, PVDF; VWR, Radnor, Pa.). All test formulas were adjusted to the desired pH using citric acid and/or NaOH. All tubes were inoculated with 250 μL of spore inoculum (described above) to a total volume of 5 mL, for a final spore concentration of ˜1×10^6 spores/mL in each tube. […] About 100 μL of each inoculated foamy hand soap mixture was diluted 1:10 in DEB and 100 μL of this dilution was spread plated on MHA at several time points (e.g. 3 d, 7 d, 13 d, 18 d, and 20 d). Plates were incubated at room temperature for 3-5 days for mold (1-2 days for bacteria) and colonies enumerated.
# [8] = hand soap formula, 0.4% 1 alone
compound,measurement,setting,value
"CCCc1ccc(C(=O)NO)cc1 [4-n-propylbenzhydroxamic acid 4, 4-n-propylbenzhydroxamic acid]",Minimum inhibitory concentration,[1],0.02
same,"CFU/mL, incubation time 3 d",[2]; hand soap formula,>2.5 × 10^4 CFU/mL
same,"CFU/mL, incubation time 7 d",[2]; hand soap formula,>2.2 × 10^4 CFU/mL
same,"CFU/mL, incubation time 13 d",[2]; hand soap formula,5.0 × 10^2 CFU/mL
same,"CFU/mL, incubation time 18 d",[2]; hand soap formula,1.5 × 10^2 CFU/mL
same,"CFU/mL, incubation time 20 d",[2]; hand soap formula,<5.0 × 10^1 CFU/mL
O=C1CCC(=O)N1O [N-hydroxysuccinimide],MIC,[3],0.5 wt %
same,MIC,[4],0.5 wt %
same,MIC,[1],>0.5 wt %
same,MIC,[5],>0.5 wt %
"CC(C)c1ccc(C(=O)NO)cc1 [4-isopropylbenzhydroxamic acid 5, 4-isopropylbenzhydroxamic acid]",Minimum inhibitory concentration,[1],0.04
same,"CFU/mL, incubation time 3 d",[2]; hand soap formula,>2.5 × 10^4 CFU/mL
same,"CFU/mL, incubation time 7 d",[2]; hand soap formula,1.0 × 10^4 CFU/mL
same,"CFU/mL, incubation time 13 d",[2]; hand soap formula,1.0 × 10^2 CFU/mL
same,"CFU/mL, incubation time 18 d",[2]; hand soap formula,<5.0 × 10^1 CFU/mL
same,"CFU/mL, incubation time 20 d",[2]; hand soap formula,<5.0 × 10^1 CFU/mL
CCCCCCCC(=O)O [Caprylic acid],MIC,[3],0.5 wt %
same,MIC,[4],0.5 wt %
same,MIC,[1],0.5 wt %
same,MIC,[5],0.5 wt %
same,MIC,[6],0.5 wt %
CC(C)(C)ON.Cl [O-tert-butylhydroxylamine HCl],MIC,[3],0.1 wt %
same,MIC,[4],0.2 wt %
same,MIC,[1],0.5 wt %
same,MIC,[5],0.5 wt %
same,MIC,[6],0.5 wt %
O=C(O)c1ccccc1O [Salicylic acid],MIC,[3],0.1 wt %
same,MIC,[4],0.2 wt %
same,MIC,[1],0.5 wt %
same,MIC,[5],0.2 wt %
same,MIC,[6],0.5 wt %
O=C(O)c1ccccc1 [Benzoic acid],MIC,[3],0.2 wt %
same,MIC,[4],0.2 wt %
same,MIC,[1],0.2 wt %
same,MIC,[5],0.2 wt %
same,MIC,[6],0.2 wt %
Sorbitan caprylate,Log Reduction Day 12,[2]; HW,0 Log
"CCCCc1ccc(C(=O)NO)cc1 [4-n-butylbenzhydroxamic acid 6, 4-n-butylbenzhydroxamic acid]",Minimum inhibitory concentration,[4],0.1
same,Minimum inhibitory concentration,[1],0.008
same,Log reduction Week 1,"[2]; HW, 0.4 wt %",4 Log
same,Log reduction Week 2,"[2]; HW, 0.4 wt %",none
same,Day 3 Log Reduction,[7]; substance alone 0.4%,0 Log
same,Day 10 Log Reduction,[7]; substance alone 0.4%,0 Log
CO [Methanol],MIC,[3],20 wt %
same,MIC,[4],20 wt %
same,MIC,[1],0.5 wt %
same,MIC,[6],20 wt %
CC(=O)O [Acetic acid],MIC,[3],0.06 wt %
same,MIC,[4],0.06 wt %
same,MIC,[1],0.2 wt %
same,MIC,[5],0.1 wt %
same,MIC,[6],0.2 wt %
CC(=O)NO [Acetohydroxamic acid],MIC,[3],0.5 wt %
same,MIC,[4],0.5 wt %
same,MIC,[1],0.5 wt %
same,MIC,[5],0.5 wt %
same,MIC,[6],0.2 wt %
OCc1ccccc1 [Benzyl alcohol],MIC,[3],0.5 wt %
same,MIC,[4],0.2 wt %
same,MIC,[1],0.5 wt %
same,MIC,[5],0.5 wt %
same,MIC,[6],0.5 wt %
CCCOC(=O)c1cc(O)c(O)c(O)c1 [Propyl gallate],Log Reduction Day 5,[2]; HW,1 Log
same,Log Reduction Day 12,[2]; HW,1 Log
"O=C(NO)c1ccccc1 [Benzhydroxamic acid 1, Benzhydroxamic acid]",MIC,[3],0.06 wt %
same,MIC,[4],0.1 wt %
same,Minimum inhibitory concentration,[4],0.1
same,MIC,[1],0.02 wt %
same,Minimum inhibitory concentration,[1],0.02
same,MIC,[5],0.5 wt %
same,MIC,[6],0.03 wt %
same,Log reduction Week 1,"[2]; HW, 0.5 wt %",1 Log
same,Log reduction Week 2 (day 12),"[2]; HW, 0.5 wt %, day 12",4 Log
same,Log Reduction Day 5,[2]; HW,1 Log
same,Log Reduction Day 12,[2]; HW,4 Log
same,CFU/mL after 7 d contact time,[2]; [8],1 × 10^3 CFU/mL
same,CFU/mL after 7 d contact time,[7]; [8],2 × 10^4 CFU/mL
CCCCCCC(O)CO (centres unmarked) [Caprylyl Glycol],Log Reduction Day 5,[2]; HW,0 Log
same,Log Reduction Day 12,[2]; HW,1 Log
Cl.NOc1ccccc1 [O-phenylhydroxylamine HCl],MIC,[3],>0.5 wt %
same,MIC,[4],0.2 wt %
same,MIC,[1],0.06 wt %
same,MIC,[5],0.3 wt %
same,MIC,[6],0.1 wt %
"Cc1ccc(C(=O)NO)cc1 [4-methylbenzhydroxamic acid 2, 4-methylbenzhydroxamic acid]",Minimum inhibitory concentration,[4],0.3
same,Minimum inhibitory concentration,[1],0.02
same,Log reduction Week 1,"[2]; HW, 0.2 wt %",4 Log
same,Log reduction Week 2,"[2]; HW, 0.2 wt %",4 Log
same,Day 3 Log Reduction,[7]; substance alone 0.2%,2 Log
same,Day 10 Log Reduction,[7]; substance alone 0.2%,4 Log
"CCc1ccc(C(=O)NO)cc1 [4-ethylbenzhydroxamic acid 3, 4-ethylbenzhydroxamic acid]",Minimum inhibitory concentration,[4],0.5
same,Minimum inhibitory concentration,[1],0.06
same,Log reduction Week 1,"[2]; HW, 0.2 wt %",4 Log
same,Log reduction Week 2,"[2]; HW, 0.2 wt %",1 Log
same,Log reduction Week 1,"[2]; HW, 0.5 wt %",4 Log
same,Log reduction Week 2,"[2]; HW, 0.5 wt %",4 Log
same,Day 3 Log Reduction,[7]; substance alone 0.2%,1 Log
same,Day 10 Log Reduction,[7]; substance alone 0.2%,0 Log
CC(C)(C)O [t-Butanol],MIC,[3],5 wt %
same,MIC,[4],20 wt %
same,MIC,[1],>0.5 wt %
same,MIC,[5],>0.5 wt %
same,MIC,[6],0.5 wt %
Cl.ONCc1ccccc1 [N-benzylhydroxylamine HCl],MIC,[3],0.5 wt %
same,MIC,[4],0.2 wt %
same,MIC,[1],0.2 wt %
same,MIC,[5],0.5 wt %
same,MIC,[6],0.5 wt %
O=C(CCCCCCC(=O)NO)NO [Suberohydroxamic acid],MIC,[3],0.5 wt %
same,MIC,[4],0.5 wt %
same,MIC,[1],0.5 wt %
same,MIC,[5],>0.5 wt %
same,MIC,[6],0.5 wt %
CCO [Ethanol],MIC,[3],10 wt %
same,MIC,[4],10 wt %
same,MIC,[1],0.47 wt %
same,MIC,[6],10 wt %
Oc1ccccc1 [Phenol],MIC,[3],0.2 wt %
same,MIC,[4],0.2 wt %
same,MIC,[1],0.1 wt %
same,MIC,[5],>0.5 wt %
same,MIC,[6],0.2 wt %
CCON.Cl [O-ethylhydroxylamine HCl],MIC,[3],0.1 wt %
same,MIC,[4],0.1 wt %
same,MIC,[1],0.1 wt %
same,MIC,[5],0.1 wt %
same,MIC,[6],0.2 wt %
CON.Cl [O-methylhydroxylamine HCl],MIC,[3],0.06 wt %
same,MIC,[4],0.1 wt %
same,MIC,[1],0.1 wt %
same,MIC,[5],0.2 wt %
same,MIC,[6],0.5 wt %
Cl.NOCc1ccccc1 [O-benzylhydroxylamine HCl],MIC,[3],0.2 wt %
same,MIC,[4],0.2 wt %
same,MIC,[1],0.2 wt %
same,MIC,[5],0.2 wt %
same,MIC,[6],0.5 wt %
